Several values for one entry are separate records, joined by “and”; a condition that tells them apart may be missing. Equal entries are not always repeated.
Assays:
eIF2Bα [1] = target: T1, eIF2Bα (Homo sapiens, UniProt Q14232); test: MIDAS (mass spectrometry integrated with equilibrium dialysis) metabolite binding screen
T1 construct: made in house; host or cells: E. coli BL21(DE3)
T1 sequence (Q14232 1-305): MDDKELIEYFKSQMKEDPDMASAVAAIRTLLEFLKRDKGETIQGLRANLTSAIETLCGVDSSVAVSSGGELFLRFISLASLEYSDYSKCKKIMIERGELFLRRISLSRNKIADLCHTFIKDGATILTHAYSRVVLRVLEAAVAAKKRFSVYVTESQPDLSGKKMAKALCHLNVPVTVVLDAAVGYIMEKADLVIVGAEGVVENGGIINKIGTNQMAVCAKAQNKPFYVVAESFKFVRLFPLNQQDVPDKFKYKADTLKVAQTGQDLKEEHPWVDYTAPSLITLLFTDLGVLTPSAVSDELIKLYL
In short: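 Hits called at Storey q < 0.1 on z-scores of PCA-corrected log2 fold change between protein and metabolite chambers, quantified by FIA-MS in triplicate.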

eIF2B [2] = target: T2, eIF2B (Homo sapiens, UniProt P49770+Q14232+Q9UI10); test: eIF2B GEF activity assay, unbiased metabolite screen (Bodipy-FL-GDP release); assay type: biochemical; conditions: 10 μM metabolite
T2 construct: made in house; host or cells: eIF2Bα: E. coli BL21(DE3)
T2 sequence (P49770 whole entry, one chain of several): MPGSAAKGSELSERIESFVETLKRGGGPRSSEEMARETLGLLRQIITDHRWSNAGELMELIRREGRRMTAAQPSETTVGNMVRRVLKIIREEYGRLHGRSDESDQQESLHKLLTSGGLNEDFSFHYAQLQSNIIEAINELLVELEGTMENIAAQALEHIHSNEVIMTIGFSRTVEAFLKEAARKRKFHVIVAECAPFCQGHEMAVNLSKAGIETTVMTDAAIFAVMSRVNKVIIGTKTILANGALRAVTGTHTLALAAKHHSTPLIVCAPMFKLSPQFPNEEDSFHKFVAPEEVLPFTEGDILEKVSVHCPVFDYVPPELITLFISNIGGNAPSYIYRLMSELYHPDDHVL
T2 sequence (Q9UI10 whole entry, one chain of several): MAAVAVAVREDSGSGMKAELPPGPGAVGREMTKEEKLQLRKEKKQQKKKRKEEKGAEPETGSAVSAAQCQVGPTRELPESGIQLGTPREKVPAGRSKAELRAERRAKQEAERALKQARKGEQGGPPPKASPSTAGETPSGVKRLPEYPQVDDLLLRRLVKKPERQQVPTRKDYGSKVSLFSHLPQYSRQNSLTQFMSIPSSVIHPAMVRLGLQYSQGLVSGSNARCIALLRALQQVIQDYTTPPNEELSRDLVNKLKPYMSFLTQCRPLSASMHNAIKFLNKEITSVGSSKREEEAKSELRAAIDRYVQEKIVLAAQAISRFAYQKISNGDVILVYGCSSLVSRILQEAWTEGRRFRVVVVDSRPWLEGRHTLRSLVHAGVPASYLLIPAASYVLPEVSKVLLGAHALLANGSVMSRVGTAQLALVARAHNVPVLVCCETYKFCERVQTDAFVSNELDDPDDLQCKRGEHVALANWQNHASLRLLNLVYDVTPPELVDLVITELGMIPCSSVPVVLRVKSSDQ
T2 sequence (Q9NR50 whole entry partner, one chain of several): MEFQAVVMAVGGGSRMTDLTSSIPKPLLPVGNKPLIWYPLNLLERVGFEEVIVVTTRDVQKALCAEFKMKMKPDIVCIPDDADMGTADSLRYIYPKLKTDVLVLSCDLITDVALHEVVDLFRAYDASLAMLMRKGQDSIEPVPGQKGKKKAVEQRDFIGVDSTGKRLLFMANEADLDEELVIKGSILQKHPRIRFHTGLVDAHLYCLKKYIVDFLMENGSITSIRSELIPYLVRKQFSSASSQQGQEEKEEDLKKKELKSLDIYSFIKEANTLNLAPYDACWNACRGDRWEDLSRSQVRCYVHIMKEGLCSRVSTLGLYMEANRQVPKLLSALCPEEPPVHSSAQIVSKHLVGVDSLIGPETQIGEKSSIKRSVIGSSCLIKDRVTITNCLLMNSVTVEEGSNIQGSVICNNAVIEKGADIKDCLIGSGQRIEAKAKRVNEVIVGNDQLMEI
T2 sequence (Q13144 whole entry partner, one chain of several): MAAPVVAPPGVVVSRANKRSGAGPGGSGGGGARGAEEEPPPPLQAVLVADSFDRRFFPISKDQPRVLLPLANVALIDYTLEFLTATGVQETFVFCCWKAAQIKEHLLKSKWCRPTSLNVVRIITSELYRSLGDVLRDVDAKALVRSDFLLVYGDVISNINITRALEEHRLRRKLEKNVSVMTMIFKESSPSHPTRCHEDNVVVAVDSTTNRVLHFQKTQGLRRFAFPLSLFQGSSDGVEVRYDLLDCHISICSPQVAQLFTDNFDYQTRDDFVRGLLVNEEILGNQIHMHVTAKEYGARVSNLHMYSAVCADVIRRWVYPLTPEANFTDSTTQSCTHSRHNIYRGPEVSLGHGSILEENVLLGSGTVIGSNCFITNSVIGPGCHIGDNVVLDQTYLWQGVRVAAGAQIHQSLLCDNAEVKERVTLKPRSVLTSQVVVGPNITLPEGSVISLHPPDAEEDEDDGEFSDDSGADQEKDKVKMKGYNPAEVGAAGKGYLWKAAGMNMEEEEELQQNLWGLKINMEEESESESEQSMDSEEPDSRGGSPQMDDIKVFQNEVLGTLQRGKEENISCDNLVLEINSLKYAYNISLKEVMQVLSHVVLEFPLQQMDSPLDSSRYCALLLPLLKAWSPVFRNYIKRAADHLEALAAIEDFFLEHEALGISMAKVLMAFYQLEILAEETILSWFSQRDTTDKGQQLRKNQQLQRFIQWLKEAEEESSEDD
Description: (§1) Bodipy-FL-GDP-loaded eIF2 was used as a substrate for recombinant eIF2B. The assay was performed in 384-well plates. Reactions were read on a SpectraMax i3x plate reader (Molecular Devices) using the instrument’s Softmax Pro software with the following parameters: plate temperature = 25 °C; excitation wavelength = 485 nm (15 nm width); emission wavelength = 535 nm (25 nm width); read duration = 30 min at 45 s intervals. Data were analyzed in Prism. GDP release half-lives were calculated by fitting single-exponential decay curves.
For unbiased screening, MIDAS metabolite libraries at 10 mM stock concentration were dispensed into wells of the assay plate using an Echo Acoustic Liquid Handler (Labcyte). […] A single well was run for each metabolite. […] For targeted experiments with HEK293T lysates, the following conditions were used: 50 nM Bodipy-FL-GDP-loaded eIF2, 0.1 mM GDP, 1 mg/ml BSA, 0.1 or 0.3 mg/ml lysates.

eIF2Bα [3] = target: T1, eIF2Bα; test: Differential scanning fluorimetry (Protein Thermal Shift), eIF2Bα Tm; assay type: binding; conditions: individual replicates Rep 1-4, control without metabolite about 64.1
Description: The effect of metabolite binding on eIF2Bα Tm was assessed using the Protein Thermal Shift assay (Thermo Fisher), following manufacturer’s instructions. Briefly, reaction conditions for each 20 μL reaction were: 1.1 μg (1.5 μM) of eIF2Bα, 5 μl Thermal Shift buffer, 1X Thermal Shift dye, and metabolites in dose response. Reactions were run in 384-well format on a QuantStudio 6 Flex instrument (Thermo Fisher). The resulting melt curves were analyzed using Protein Thermal Shift Software, and eIF2Bα Tms for each condition were calculated by fitting to the Boltzmann function.

eIF2Bα [4] = target: T1, eIF2Bα; test: Isothermal titration calorimetry, wild-type eIF2Bα; assay type: binding; conditions: ITC, wild-type eIF2Bα
Description: Interactions between recombinant protein and sugar phosphates were conducted with a MicroCal PEAQ-ITC (Malvern Panalytical Inc.). Experiments were performed in 25 mM HEPES, 150 mM NaCl, pH 7.5 at 20 °C. The sugar phosphate concentration in the syringe was 1 mM or 1.5 mM, and ~3.5 μL aliquots were injected into cells containing 300 μL eIF2Bα or eIF2B(βδγε) at a concentration of 20–30 μM. The final titration curves were fitted using MicroCal ITC data analysis software, assuming a single binding site per monomer.

eIF2B [5] = target: T2, eIF2B; test: eIF2B GEF activity assay, targeted, recombinant wild-type eIF2B; assay type: biochemical; conditions: 500 nM ISRIB, 200 μM F6P, 200 μM G1P
Description: as §1
For unbiased screening, MIDAS metabolite libraries at 10 mM stock concentration were dispensed into wells of the assay plate using an Echo Acoustic Liquid Handler (Labcyte). In a final assay volume of 10 μL/well, the following conditions were kept constant: 25 nM Bodipy-FL-GDP-loaded eIF2, 4 nM phospho-eIF2, 0.1 mM GDP, 1 mg/mL BSA, 1 nM eIF2B, 10 μM metabolite. A single well was run for each metabolite. For targeted experiments with recombinant wild-type and mutant eIF2Bα, the following conditions were used: 50 nM Bodipy-FL-GDP-loaded eIF2, 0.1 mM GDP, 1 mg/ml BSA, 20 nM eIF2B. For targeted experiments with HEK293T lysates, the following conditions were used: 50 nM Bodipy-FL-GDP-loaded eIF2, 0.1 mM GDP, 1 mg/ml BSA, 0.1 or 0.3 mg/ml lysates.

[6] = target: T3, eIF2B decamer in WT HEK293T lysate (Homo sapiens, UniProt P49770+Q14232+Q9UI10); test: Sucrose gradient centrifugation, eIF2B complex assembly, WT HEK293T lysate; assay type: biochemical; conditions: 400 mM KCl, 5–20% sucrose gradient
T3 construct: endogenous in cells; host or cells: HEK293T (wild type) lysate
T3 sequence (P49770 whole entry, one chain of several): as the sequence (P49770 whole entry, one chain of several) above
T3 sequence (Q9UI10 whole entry, one chain of several): as the sequence (Q9UI10 whole entry, one chain of several) above
T3 sequence (Q9NR50 whole entry partner, one chain of several): as the sequence (Q9NR50 whole entry partner, one chain of several) above
T3 sequence (Q13144 whole entry partner, one chain of several): as the sequence (Q13144 whole entry partner, one chain of several) above
Description: WT or eIF2Bα mutant HEK293T cells were harvested and lysed in 50 mM HEPES, 400 mM KCl, 1 mM DTT, 4 mM Mg(OAc)2, pH 7.5 + 0.5% Triton-X-100 + EDTA-free protease inhibitor cocktail (Roche) on ice for 30 min. Lysates were cleared by centrifugation at 48,000 × g, 4 °C for 30 min. 100 μL of each cleared lysate was loaded onto a 5–20% sucrose gradient prepared in a 13 × 51 mm ultracentrifuge tube using a Gradient Station (Biocomp) and centrifuged in a SW55 Ti rotor at 152,000 × g, 4 °C for 12 h. After centrifugation, 24 × 200 μL fractions were manually collected from the top to bottom of each gradient. Each fraction was subjected to methanol/chloroform precipitation and SDS-PAGE followed by Western Blot with the indicated antibodies. Blots were imaged on a ChemiDoc MP (Bio-Rad), and band intensities were quantified using the instrument’s Image Lab software. Each value was then divided by total intensity obtained across all fractions to determine percent enrichment of each subunit in each fraction.

log2(corrected fold change) (eIF2Bα [1]; MIDAS metabolite binding screen with eIF2Bα, sheet "eIF2Ba")	effect on eIF2B GEF activity in the screen (eIF2B [2])	MIDAS result (enrichment in the protein chamber / hit status) (eIF2Bα [1]; eIF2Bα2, 50 μM per metabolite pool, 40 h dialysis at 4 °C)	Compound	Tm of eIF2Bα (eIF2Bα [3]; 0.33 mM metabolite)	Tm of eIF2Bα (eIF2Bα [3]; 1 mM metabolite)	Tm of eIF2Bα (eIF2Bα [3]; 3.3 mM metabolite)	Tm of eIF2Bα (eIF2Bα [3]; 10 mM metabolite)	interaction with eIF2Bα (eIF2Bα [4])	effect on GEF activity of recombinant wild-type eIF2B (eIF2B [5])	eIF2B decamer formation (migration of eIF2Bα and eIF2Bδ) [6]	Tm of eIF2Bα (eIF2Bα [3]; 5 mM metabolite)
-0.09804	a hit in this functional assay screen		Nc1ncnc2c1ncn2[C@@H]1O[C@H](COP(=O)(O)OP(=O)(O)O)[C@@H](O)[C@H]1O [ADP, Adenosine diphosphate]								
			O=C(COP(=O)(O)O)[C@@H](O)[C@H](O)[C@H](O)COP(=O)(O)O [Fructose-1,6-bisphosphate]	64.6451 °C and 64.2202 °C and 65.137 °C and 65.0552 °C	65.6845 °C and 64.643 °C and 66.191 °C and 66.0945 °C	65.4601 °C and 64.9088 °C and 65.6023 °C and 65.9064 °C	67.1254 °C and 66.1581 °C and 67.3047 °C and 67.21 °C				
			O=P(O)(O)O[C@H]1O[C@H](CO)[C@@H](O)[C@H](O)[C@H]1O [G1P, glucose-1-phosphate]	64.9734 °C and 64.7812 °C and 64.8751 °C and 63.7923 °C	65.6948 °C and 65.7116 °C and 65.1967 °C and 64.0445 °C	65.6535 °C and 64.9673 °C and 65.2055 °C and 64.2208 °C	65.8625 °C and 65.8106 °C and 65.498 °C and 64.4559 °C	did not interact	an inactive metabolite in the enzymatic assay	did not affect the migration of eIF2B subunits	
		most enriched metabolite identified	N[C@@H](Cc1ccc(O)cc1)C(=O)O [L-tyrosine]	64.527 °C and 64.3045 °C and 63.9825 °C and 63.5986 °C	65.9465 °C and 65.8614 °C and 65.2637 °C and 64.606 °C						66.2946 °C and 66.2026 °C and 66.1461 °C and 65.4309 °C

Source: PMC8187479, “Sugar phosphate activation of the stress sensor eIF2B” (Nature Communications, 2021)
